Assay results reported in article PMC6941952, “A homogeneous bioluminescent immunoassay to probe cellular signaling pathway regulation” (Communications Biology, 2020).
Where “and” joins values, the source holds several entries; their conditions need not be identical. Equal values may be shown once. Each block holds one compound with its values, some of them ahead of it.

Legend:
Design in all cases: species or system human
[1] = test system: AKT Phospho-Ser473; experiment: NanoBiT p-AKT cell-based immunoassay in MCF-7 cells; details: for P-AKT (% compared to no LY294002), Average / P-AKT (% compared to no LY294002) / P-AKT, Raw data / P-AKT, Subtract reagent background: Insulin 1 uM; for P-AKT (% compared to no LY294002), Average: average of replicates; for P-AKT (% compared to no LY294002) / P-AKT, Raw data / P-AKT, Subtract reagent background: single replicates
Experimental: (§1) Prior to NanoBiT Cell-Based Immunoassay, 50,000 cells were seeded in 160 µl of complete growth media per well of a 96-well plate and incubated overnight. The cells were checked under microscope and it was determined that 50,000 cells per well in 96-well plate is under 90% confluency for all cells tested. If necessary, the cell culture media were replaced with serum-free media after the cells were stably adherent on the plate and incubated overnight. To treat cells with activators or inhibitors, medium was changed to 30 µl of medium containing inhibitors. If activation of a specific pathway is needed, the cells were stimulated with 10 µl of medium containing activators. To lyse the cells, 10 µl of lysis buffer containing 0.1% digitonin diluted in 1X immunoassay buffer with protease and phosphatase inhibitors was added and the plates were mixed vigorously for 20 min. Then, 50 µl of an antibody mix containing two primary antibodies against the target protein and NanoBiT detecting antibodies (0.3 µl each per well), diluted in 1X immunoassay buffer was added to the lysates. The plates were incubated at 23 °C for 90 min, followed by the addition of 25 µl of Nano-Glo® reagent consisting of Nano-Glo® Luciferase Assay Substrate mixed with 1X immunoassay buffer. Luminescence was measured using a plate-reading luminometer.
(§2) Single dose or dose response inhibitor treatments were performed prior to activation of the pathways as follows. For IκBα, the cells were treated in 30 µl medium with IKK16 or MG132 for 60 min before the addition of 10 µl of DMEM containing appropriate concentration of TNFα. To measure phosphorylation of AKT or STAT3, the corresponding NanoBiT immunoassays were developed with MCF-7 or A431 cells, respectively, according the same scheme used to develop the IκBα assay using the primary antibodies for AKT and STAT3 described in the reagents section. For the AKT assay, MCF-7 cells were incubated overnight in phenol-red free DMEM medium (Gibco #21063-029) without serum. Treatment with LY294002 was performed in 30 µl medium and cells were incubated for 60 min before the addition of 1 µM Insulin. To measure STAT3 phosphorylation, A431 cells were incubated overnight in DMEM medium without serum. […] After addition of the stimulators, the cells were incubated for additional times as follows. IκBα phosphorylation and degradation analyses required both time courses and single time points as described in figures. […] The NanoBiT immunoassay protocol was followed as described above.
(§3) All 96-well assay plates were read using a GloMax® 96 Microplate Luminometer from Promega. The instrument was set to 0.5 s integration time. In order to obtain net change of signal, the reagent background values (signal from the well containing all reagent except primary antibodies) were subtracted from the sample values. To plot and analyze the data, Microsoft Excel and GraphPad Prism® Software were used. IC50 values were determined by using a nonlinear regression fit to a sigmoidal dose response (variable slope).

[2] = test system: total AKT; experiment: NanoBiT cell-based immunoassay, total AKT in MCF-7 cells; details: MCF-7 cells, insulin 1 µM 10 min, LY294002 20 µM 1 h
Experimental: as §1, §2, §3

[3] = test system: STAT3 Phospho-Tyr705; experiment: NanoBiT pSTAT3 cell-based immunoassay in A431 cells; details: for Raw data P-STAT3 / Subtract reagent background P-STAT3 / P-STAT3 (% compared to no inhibitor) / Average P-STAT3 (% compared to no inhibitor): IL-6 10 ng/ml, A431, Fig 6e; for P-STAT3 (% compared to no inhibitor): replicate
Experimental: as §1, with “The cells were checked under microscope and it was determined that 50,000 cells per well in 96-well plate is under 90% confluency for all cells tested.” left out
as §2, with “For the AKT assay, MCF-7 cells were incubated overnight in phenol-red free DMEM medium (Gibco #21063-029) without serum.” left out
as §3

[4] = A431 cells, pretreated 1 h, IL-6 10 ng per ml 30 min

IC50 ([1]; Homo sapiens, MCF7, MCF-7 cells, pretreated 1 h, insulin 1 µM 10 min, read-out: IC50, inhibition of AKT phosphorylation after insulin treatment): 8.89 µM
Compound: O=c1cc(N2CCOCC2)oc2c(-c3ccccc3)cccc12 [LY294002, 2-(4-morpholinyl)-8-phenyl-4H-1-benzopyran-4-one]
P-AKT (% compared to no LY294002), Average ([1]; LY294002 0.00190735 uM): 98.2%
P-AKT (% compared to no LY294002) ([1]; LY294002 0.00190735 uM): 99.8% and 97.4% and 97.5%
P-AKT, Raw data ([1]; LY294002 0.00190735 uM): 2596000 and 2655000 and 2614000
P-AKT, Subtract reagent background ([1]; LY294002 0.00190735 uM): 2495800 and 2454800 and 2436800
P-AKT (% compared to no LY294002), Average ([1]; LY294002 0.00762939 uM): 100.2%
P-AKT (% compared to no LY294002) ([1]; LY294002 0.00762939 uM): 101.9% and 99.8% and 98.9%
P-AKT, Raw data ([1]; LY294002 0.00762939 uM): 2632000 and 2707000 and 2673000
P-AKT, Subtract reagent background ([1]; LY294002 0.00762939 uM): 2548800 and 2514800 and 2473800
P-AKT (% compared to no LY294002), Average ([1]; LY294002 0.0305176 uM): 99.6%
P-AKT (% compared to no LY294002) ([1]; LY294002 0.0305176 uM): 100.5% and 98.7% and 99.6%
P-AKT, Raw data ([1]; LY294002 0.0305176 uM): 2646000 and 2668000 and 2645000
P-AKT, Subtract reagent background ([1]; LY294002 0.0305176 uM): 2511750 and 2488750 and 2489750
P-AKT (% compared to no LY294002), Average ([1]; LY294002 0.12207 uM): 97.0%
P-AKT (% compared to no LY294002) ([1]; LY294002 0.12207 uM): 98.2% and 96.0% and 96.8%
P-AKT, Raw data ([1]; LY294002 0.12207 uM): 2577000 and 2614000 and 2578000
P-AKT, Subtract reagent background ([1]; LY294002 0.12207 uM): 2456500 and 2420500 and 2419500
P-AKT (% compared to no LY294002), Average ([1]; LY294002 0.488281 uM): 97.0%
P-AKT (% compared to no LY294002) ([1]; LY294002 0.488281 uM): 100.1% and 96.2% and 94.5%
P-AKT, Raw data ([1]; LY294002 0.488281 uM): 2521000 and 2661000 and 2582000
P-AKT, Subtract reagent background ([1]; LY294002 0.488281 uM): 2503600 and 2424600 and 2363600
P-AKT (% compared to no LY294002), Average ([1]; LY294002 1.95312 uM): 89.9%
P-AKT (% compared to no LY294002) ([1]; LY294002 1.95312 uM): 90.1% and 89.4%
P-AKT, Raw data ([1]; LY294002 1.95312 uM): 2390000 and 2409000 and 2425000
P-AKT, Subtract reagent background ([1]; LY294002 1.95312 uM): 2253650 and 2269650 and 2234650
P-AKT (% compared to no LY294002), Average ([1]; LY294002 7.8125 uM): 57.7%
P-AKT (% compared to no LY294002) ([1]; LY294002 7.8125 uM): 58.2% and 58.0% and 57.0%
P-AKT, Raw data ([1]; LY294002 7.8125 uM): 1581000 and 1612000 and 1617000
P-AKT, Subtract reagent background ([1]; LY294002 7.8125 uM): 1455800 and 1460800 and 1424800
P-AKT (% compared to no LY294002), Average ([1]; LY294002 31.25 uM): 11.5%
P-AKT (% compared to no LY294002) ([1]; LY294002 31.25 uM): 11.5% and 11.7% and 11.4%
P-AKT, Raw data ([1]; LY294002 31.25 uM): 439900 and 442300 and 448200
P-AKT, Subtract reagent background ([1]; LY294002 31.25 uM): 288200 and 294100 and 285800
P-AKT (% compared to no LY294002), Average ([1]; LY294002 500 uM): 1.5%
P-AKT (% compared to no LY294002) ([1]; LY294002 500 uM): 1.5% and 1.4% and 1.6%
P-AKT, Raw data ([1]; LY294002 500 uM): 166500 and 165600 and 161400
P-AKT, Subtract reagent background ([1]; LY294002 500 uM): 38600 and 34400 and 39500
P-AKT (% compared to no LY294002), Average ([1]; LY294002 […]): 1.8%
insulin-induced increase in AKT phosphorylation ([1]; MCF-7 cells, 20 µM 1 h pretreatment, insulin 1 µM 10 min): suppressed
total level of AKT protein [2]: stayed constant

IC50, inhibition of Phospho-STAT3 [3, 4]: 0.16 mg/L
Compound: Tocilizumab: humanized monoclonal antibody against the IL-6 receptor, approved immunosuppressive drug
STAT3 phosphorylation / JAK2-STAT3 pathway activation, dose response [3, 4]: inhibited
Raw data P-STAT3 ([3]; Actemra 7.62939e-5 ug/ml): 317500 and 271600 and 267300
Subtract reagent background P-STAT3 ([3]; Actemra 7.62939e-5 ug/ml): 173175 and 168875 and 219075
P-STAT3 (% compared to no inhibitor) ([3]; Actemra 7.62939e-5 ug/ml): 117.6%
Raw data P-STAT3 ([3]; Actemra 0.000305176 ug/ml): 341900 and 251000 and 260600
Subtract reagent background P-STAT3 ([3]; Actemra 0.000305176 ug/ml): 155645 and 165245 and 246545
P-STAT3 (% compared to no inhibitor) ([3]; Actemra 0.000305176 ug/ml): 91.7% and 120.7%
Raw data P-STAT3 ([3]; Actemra 0.0012207 ug/ml): 299200 and 250300 and 276700
Subtract reagent background P-STAT3 ([3]; Actemra 0.0012207 ug/ml): 153990 and 180390 and 202890
Average P-STAT3 (% compared to no inhibitor) ([3]; Actemra 0.00488281 ug/ml): 74.6%
Raw data P-STAT3 ([3]; Actemra 0.00488281 ug/ml): 245000 and 216200 and 217700
Subtract reagent background P-STAT3 ([3]; Actemra 0.00488281 ug/ml): 121185 and 122685 and 149985
P-STAT3 (% compared to no inhibitor) ([3]; Actemra 0.00488281 ug/ml): 82.3% and 68.1% and 73.4%
Average P-STAT3 (% compared to no inhibitor) ([3]; Actemra 0.0195312 ug/ml): 41.8%
Raw data P-STAT3 ([3]; Actemra 0.0195312 ug/ml): 170000 and 159800 and 165700
Subtract reagent background P-STAT3 ([3]; Actemra 0.0195312 ug/ml): 67955 and 73855 and 78155
P-STAT3 (% compared to no inhibitor) ([3]; Actemra 0.0195312 ug/ml): 46.2% and 41.0% and 38.2%
Average P-STAT3 (% compared to no inhibitor) ([3]; Actemra 0.078125 ug/ml): 19.4%
Raw data P-STAT3 ([3]; Actemra 0.078125 ug/ml): 138700 and 129600 and 119000
Subtract reagent background P-STAT3 ([3]; Actemra 0.078125 ug/ml): 34580 and 23980 and 43680
P-STAT3 (% compared to no inhibitor) ([3]; Actemra 0.078125 ug/ml): 23.5% and 13.3% and 21.4%
Average P-STAT3 (% compared to no inhibitor) ([3]; Actemra 0.3125 ug/ml): 9.3%
Raw data P-STAT3 ([3]; Actemra 0.3125 ug/ml): 116800 and 110300 and 113700
Subtract reagent background P-STAT3 ([3]; Actemra 0.3125 ug/ml): 13270 and 16670 and 19770
P-STAT3 (% compared to no inhibitor) ([3]; Actemra 0.3125 ug/ml): 9.0% and 9.3% and 9.7%
Average P-STAT3 (% compared to no inhibitor) ([3]; Actemra 5 ug/ml): 7.9%
Raw data P-STAT3 ([3]; Actemra 5 ug/ml): 110700 and 107600 and 97720
P-STAT3 (% compared to no inhibitor) ([3]; Actemra 5 ug/ml): 10.8% and 3.4% and 9.3%
Average P-STAT3 (% compared to no inhibitor) ([3]; Actemra 20 ug/ml): 7.7%
Raw data P-STAT3 ([3]; Actemra 20 ug/ml): 106200 and 97590
P-STAT3 (% compared to no inhibitor) ([3]; Actemra 20 ug/ml): 11.0% and 4.2% and 7.9%
Average P-STAT3 (% compared to no inhibitor) ([3]; Actemra […]): 7.7%
